Experimental data from ChEMBL document CHEMBL1201862, “PubChem BioAssay data set” (2004).
The source made the active and inactive calls. Rule as the data show it: actives have a measured IC50 and inactives only a lower limit.

Molecular target: Envelope glycoprotein gp160 (Human immunodeficiency virus 1, UniProt Q6QLK5)
Test: cell-free HIV fusion peptide-binding blockers – biochemical, uHTS, fluorescence dequenching, […] (AID 1986)

Envelope glycoprotein gp160, sequence (Q6QLK5 whole entry, the tested form may be a part): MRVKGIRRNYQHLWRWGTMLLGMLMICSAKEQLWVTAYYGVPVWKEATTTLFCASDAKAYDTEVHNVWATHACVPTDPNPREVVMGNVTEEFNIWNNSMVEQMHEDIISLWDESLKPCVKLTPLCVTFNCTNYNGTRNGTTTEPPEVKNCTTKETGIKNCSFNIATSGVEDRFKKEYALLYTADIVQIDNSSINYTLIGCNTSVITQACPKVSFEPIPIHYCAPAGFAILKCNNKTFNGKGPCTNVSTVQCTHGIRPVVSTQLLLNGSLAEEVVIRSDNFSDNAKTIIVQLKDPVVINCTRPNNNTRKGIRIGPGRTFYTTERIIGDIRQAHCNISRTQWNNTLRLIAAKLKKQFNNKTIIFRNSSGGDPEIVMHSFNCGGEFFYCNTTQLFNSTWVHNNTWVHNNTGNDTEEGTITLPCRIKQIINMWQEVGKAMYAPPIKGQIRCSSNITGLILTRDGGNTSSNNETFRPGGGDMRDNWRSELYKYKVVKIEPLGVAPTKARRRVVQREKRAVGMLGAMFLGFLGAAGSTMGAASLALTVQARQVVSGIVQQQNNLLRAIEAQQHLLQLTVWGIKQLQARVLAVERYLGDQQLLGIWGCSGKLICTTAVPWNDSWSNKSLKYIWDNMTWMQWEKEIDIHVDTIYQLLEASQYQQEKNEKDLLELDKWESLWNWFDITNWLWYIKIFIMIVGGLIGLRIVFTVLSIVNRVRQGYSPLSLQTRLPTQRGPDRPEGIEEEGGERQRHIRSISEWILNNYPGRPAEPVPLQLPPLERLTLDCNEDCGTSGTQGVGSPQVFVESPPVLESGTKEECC

SMILES | IC50
CC1=C(C(=O)Nc2ccccc2)C(c2ccc(Cl)cc2)n2c(s/c(=C/c3cccc(OCC(=O)O)c3)c2=O)=N1 (configuration not stated) | 16.8 µM (active)
COc1ccc(-c2nn(-c3ccccc3)cc2/C=C\C(=O)Nc2ccc(C(=O)O)cc2)cc1 | 18.3 µM (active)
